Consider 37 compounds from patent US20060045953A1 (priority 2004, published 2006).

The first assay deals with T1, hT1R1/hT1R3 umami receptor (Homo sapiens, UniProt Q7RTX0+Q7RTX1).
T1 construct: expressed in transfected cells; host or cells: HEK293 derivative stably expressing Gα15, clone I-17, expression induced with mifepristone
T1 sequence (Q7RTX1 21-841): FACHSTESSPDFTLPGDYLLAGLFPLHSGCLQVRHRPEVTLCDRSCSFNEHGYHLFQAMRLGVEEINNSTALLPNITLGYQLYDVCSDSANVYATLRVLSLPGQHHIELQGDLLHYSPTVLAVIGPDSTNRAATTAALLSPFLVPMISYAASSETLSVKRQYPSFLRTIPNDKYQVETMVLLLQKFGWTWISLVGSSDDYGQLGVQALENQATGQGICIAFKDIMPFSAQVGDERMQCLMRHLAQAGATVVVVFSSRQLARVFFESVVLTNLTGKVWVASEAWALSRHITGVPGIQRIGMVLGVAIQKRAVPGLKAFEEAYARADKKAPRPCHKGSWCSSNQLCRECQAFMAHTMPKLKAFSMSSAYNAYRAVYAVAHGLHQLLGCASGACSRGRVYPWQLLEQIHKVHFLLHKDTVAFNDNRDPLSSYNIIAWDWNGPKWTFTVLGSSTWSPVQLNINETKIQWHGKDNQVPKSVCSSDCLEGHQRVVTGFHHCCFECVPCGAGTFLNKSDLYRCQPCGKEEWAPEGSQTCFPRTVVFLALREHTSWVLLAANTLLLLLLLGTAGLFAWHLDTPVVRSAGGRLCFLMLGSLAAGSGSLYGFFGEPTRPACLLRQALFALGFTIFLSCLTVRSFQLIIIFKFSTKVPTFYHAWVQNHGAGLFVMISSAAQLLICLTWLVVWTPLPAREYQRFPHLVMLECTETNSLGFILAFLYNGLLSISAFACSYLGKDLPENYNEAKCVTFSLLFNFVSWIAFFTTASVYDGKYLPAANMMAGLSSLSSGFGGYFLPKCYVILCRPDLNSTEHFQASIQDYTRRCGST
T1 sequence (Q7RTX0 21-852): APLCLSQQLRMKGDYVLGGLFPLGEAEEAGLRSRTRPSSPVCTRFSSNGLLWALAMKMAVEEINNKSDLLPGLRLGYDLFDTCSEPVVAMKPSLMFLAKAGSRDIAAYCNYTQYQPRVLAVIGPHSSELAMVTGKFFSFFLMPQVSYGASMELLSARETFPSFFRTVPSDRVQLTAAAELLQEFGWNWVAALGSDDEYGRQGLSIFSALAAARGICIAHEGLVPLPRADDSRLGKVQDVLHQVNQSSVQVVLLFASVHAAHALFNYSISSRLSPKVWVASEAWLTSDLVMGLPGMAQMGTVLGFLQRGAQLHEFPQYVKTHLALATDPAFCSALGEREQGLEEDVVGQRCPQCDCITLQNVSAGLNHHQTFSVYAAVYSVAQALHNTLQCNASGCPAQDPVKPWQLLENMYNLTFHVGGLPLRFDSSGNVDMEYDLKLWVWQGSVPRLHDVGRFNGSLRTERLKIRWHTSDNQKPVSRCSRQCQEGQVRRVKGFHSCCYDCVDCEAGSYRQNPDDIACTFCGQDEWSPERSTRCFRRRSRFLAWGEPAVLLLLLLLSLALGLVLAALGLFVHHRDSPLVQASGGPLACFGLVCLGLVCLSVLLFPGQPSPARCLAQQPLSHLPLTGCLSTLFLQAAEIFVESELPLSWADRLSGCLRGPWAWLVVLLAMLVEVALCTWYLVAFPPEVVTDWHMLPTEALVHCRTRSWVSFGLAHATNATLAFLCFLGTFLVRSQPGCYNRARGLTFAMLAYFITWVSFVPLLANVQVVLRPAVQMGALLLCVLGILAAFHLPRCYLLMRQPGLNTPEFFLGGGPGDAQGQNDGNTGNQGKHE
The assay can be described thus: In vitro hT1R1/hT1R3 umami taste receptor activation assay (FLIPR, dose response). It is filed as cell-based. The conditions noted are these: Table A, Umami Amides; read-out: Umami EC50.
With `COc1ccc(C(=O)NC(C)c2ccc(C)cc2)cc1Cl` (stereo not shown) [Example A100, 3-chloro-4-methoxy-N-(1-p-tolylethyl)benzamide], the EC50 is 1.1 µM. Same read-out and setting: to `CCCC(CCC)NC(=O)c1cc2cc(OC)ccc2o1` [Example A10, N-(heptan-4-yl)-5-methoxybenzofuran-2-carboxamide] belongs 0.91 µM; to `Cc1ccc(C(=O)N[C@H]2CCc3ccccc32)cc1C` [Example A112, (S)-N-(2,3-dihydro-1H-inden-1-yl) 3,4-dimethylbenzamide], 0.79 µM; to `C=Cc1ccc(C(=O)N[C@H]2CCCc3ccccc32)cc1` [Example A105, (S)-N-(1,2,3,4-tetrahydronaphthalen-1-yl)-4-vinylbenzamide], 1.38 µM. The same measure, in the same setting: for `CCC(COC)NC(=O)c1cc2cc(Cl)ccc2o1` (stereo not shown) [Example A11, 5-chloro-N-(1-methoxybutan-2-yl)benzofuran-2-carboxamide] the value was 1.05 µM. Still for that read-out and setting: for `CCCC(CCC)C(=O)Nc1ccc2c(c1)OCO2` [Example A50, N-(benzo[d][1,3]dioxol-5-yl)-2-propylpentanamide] the value was 1.57 µM.

For the compound `COC(=O)[C@@H](CC(C)C)NC(=O)c1ccc2[nH]ccc2c1` [Example A36, (R)-methyl 2-(1H-indole-5-carboxamido)-4-methylpentanoate], the EC50 is 1.01 µM.

As for `COC(=O)[C@@H](CC(C)C)NC(=O)c1ccc(C)c(OC)c1` [Example A73, (R)-methyl 2-(3-methoxy-4-methylbenzamido)-4-methylpentanoate], the EC50 is 0.34 µM. Same read-out and setting: for `CCCC(CC(C)C)NC(=O)c1cc2cc(OC)ccc2o1` (stereo not shown) [Example A18, 5-methoxy-N-(2-methylheptan-4-yl)benzofuran-2-carboxamide] the value was 1.27 µM; for `CCCC(CCC)NC(=O)c1cc(OC)nc(OC)n1` [Example A122, N-(heptan-4-yl)-2,6-dimethoxypyrimidine-4-carboxamide], 0.22 µM; for `COC(=O)[C@@H](CC(C)C)NC(=O)c1ccc2ncccc2c1` [Example A37, (R)-methyl 4-methyl-2-(quinoline-6-carboxamido)pentanoate], 1.5 µM. Still for that read-out and setting: for `COC[C@H](NC(=O)c1ccc(OC)c(C)c1)c1ccccc1` [Example A94, (R)-4-methoxy-N-(2-methoxy-1-phenylethyl)-3-methylbenzamide] the value was 0.72 µM.

For the compound `COc1cc(C(=O)N[C@@H]2CCCc3ccccc32)nc(OC)n1` [Example A114, (R)-2,6-dimethoxy-N-(1,2,3,4-tetrahydronaphthalen-1-yl)pyrimidine 4-carboxamide], the EC50 is 2.35 µM. Still for that read-out and setting: for `COC(=O)C(CC(C)C)NC(=O)c1cc2ccccc2s1` (stereo in doubt) [Example A4, 2-[(Benzo[b]thiophene-2-carbonyl)-amino]-4-methyl-pentanoic acid methyl ester] the value was 0.4 µM; for `CCCC(CCC)NC(=O)c1ccc(OCC)cc1` [Example A68, 4-ethoxy-N-(heptan-4-yl)benzamide], 0.32 µM; for `COc1ccc2c(c1)CCC2NC(=O)c1cccc(OC)c1N` (stereo not shown) [Example A126, 2-amino-3-methoxy-N-(5-methoxy-2,3-dihydro-1H-inden-1-yl)benzamide], 0.04 µM.

Staying with this assay, now noted: Table C, Umami Ureas; read-out: Umami EC50.
For `CC(C)C(NC(=O)Nc1ccc2c(c1)OCO2)C(C)C` [Example C19, 1-(benzo[d][1,3]dioxol-5-yl)-3-(2,4-dimethylpentan-3-yl)urea], the EC50 stood at 0.32 µM.

Regarding `Cc1ccc(NC(=O)N[C@@H](C)C(C)C)c(Cl)c1` [Example C23, (S)-1-(2-chloro-4-methylphenyl)-3-(3-methylbutan-2-yl)urea], the EC50 was found to be 0.38 µM.

In the case of `CCCC(CCC)NC(=O)Nc1ccccc1CC` [Example C9, 1-(2-ethylphenyl)-3-(heptan-4-yl)urea], the EC50 was determined as 1.42 µM. The same measure, in the same setting: to `CCCC(CCC)NC(=O)Nc1ccc2c(c1)OCO2` [Example C27, 1-(benzo[d][1,3]dioxol-5-yl)-3-(heptan-4-yl)urea] belongs 0.54 µM.

Staying with this assay, now noted: Table D, Umami Acrylamides; read-out: Umami EC50.
On to `CC(C)/C=C/C(=O)NC1CCCCC1C` (stereo not shown) [Example D12, (E)-4-methyl-N-(2-methylcyclohexyl)pent-2-enamide], for which the EC50 was found to be 1.28 µM. Still for that read-out and setting: to `CCCC(CCC)NC(=O)/C=C/c1cccs1` [Example D6, N-(1-Propyl-butyl)-3-thiophen-2-yl-acrylamide] belongs 0.75 µM.

Still in this assay, the particulars now being: opposite enantiomers compared; read-out: AFFINITY FOR T1R1/T1R3 SAVORY RECEPTOR EC50 UM.
With `CCOc1ccc(C(=O)N[C@@H]2CCc3ccccc32)cc1C` [(R)-N-(2,3-dihydro-1H-inden-1-yl)-4-ethoxy-3-methylbenzamide], the EC50 was 4.53 µM.

Staying with this assay, now noted: read-out: EC50 for activation of a hT1R1/hT1R3 umami receptor expressed in an HEK293 cell line.
With `COC(=O)[C@@H](CC(C)C)NC(=O)c1cc2cc(Cl)ccc2o1` [Example 32], the EC50 was 0.82 µM. On the same count and under the same terms, for `COC(=O)[C@@H](CC(C)C)NC(=O)c1ccc(F)c(C)c1` [Example 66, (R)-methyl 2-(4-fluoro-3-methylbenzamido)-4-methylpentanoate] the value was 0.32 µM; for `Cc1ccc(CNC(=O)C(=O)NCCc2ccccn2)o1` [Example 152, N-((5-Methylfuran-2-yl)methyl)-N2-(2-(pyridin-2-yl)ethyl)oxalamide], 4.9 µM. The same measure, in the same setting: for `CCCC(CCC)NC(=O)c1ccc2c(c1)OC(C(C)C)O2` (stereo not shown) [Example 21, N-(heptan-4-yl)-2-isopropylbenzo[d][1,3]dioxole-5-carboxamide] the value was 11.5 µM. Regarding `CCC(CC(C)C)NC(=O)c1ccc2c(c1)OCO2` (stereo not shown) [Example 5, N-(5-methylhexan-3-yl)benzo[d][1,3]dioxole-5-carboxamide], the EC50 amounted to 0.57 µM.

Turning to `CC1CCCC(NC(=O)c2ccc3c(c2)OCO3)C1C` (stereo not shown) [Example 4, N-(2,3-dimethylcyclohexyl)benzo[d][1,3]dioxole-5-carboxamide], the EC50 came out at 0.45 µM. As to `CCCC(CCC)NC(=O)c1ccc(C)nc1Cl` [Example 96, 2-chloro-N-(heptan-4-yl)-6-methylnicotinamide], the EC50 came out at 3.9 µM. Still for that read-out and setting: for `CCCC(CCC)NC(=O)c1ccc2occc2c1` [Example 90, N-(heptan-4-yl)benzofuran-5-carboxamide] the value was 1.19 µM; for `CCCC(CCC)NC(=O)c1ccc(OC)nc1` [Example 94, N-(heptan-4-yl)-6-methoxynicotinamide], 2.66 µM; for `CCCC(CC(C)C)NC(=O)/C=C/c1ccc(OC)cc1` (stereo not shown) [Example 79, 3-(4-Methoxy-phenyl)-N-(3-methyl-1-propyl-butyl)-acrylamide], 1.84 µM.

Regarding `CCCC(CCC)NC(=O)c1cc(C)nn1C` [Example 99, N-(heptan-4-yl)-1,3-dimethyl-1H-pyrazole-5-carboxamide], the EC50 is 7.8 µM. For the compound `COc1ccc(CNC(=O)c2sccc2C)c(OC)c1` [Example 108, 3-Methyl-thiophene-2-carboxylic acid 2,4-dimethoxy-benzylamide], the EC50 amounted to 5.6 µM.

Take `COC(=O)[C@@H](CC(C)C)NC(=O)c1cc2cc(C)ccc2[nH]1` [Example 36, (R)-methyl 4-methyl-2-(5-methyl-1H-indole-2-carboxamido)pentanoate]: the EC50 is 6.6 µM. The same measure, in the same setting: for `CC(C)C[C@@H](NC(=O)c1ccc2c(c1)OCO2)C(=O)N1CCCC1CO` (stereo partly drawn) [Example 16, N-((R)-1-(2-(hydroxymethyl)pyrrolidin-1-yl)-4-methyl-1-oxopentan-2-yl)benzo[d][1,3]dioxole-5-carboxamide] the value was 3 µM.
